Test results published in PubChem BioAssay (NCI).
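Here, GI50 denotes the concentration required for 50% inhibition of growth. TGI marks complete inhibition of growth.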

Columns and labels:
Assay in all cases: NCI tumour cell line growth inhibition, 384-well format
786-0 renal = tested on: 786-0 renal
A498 renal = tested on: A498 renal
A549 NSCLC = tested on: A549 NSCLC
ACHN renal = tested on: ACHN renal
BT-549 breast = tested on: BT-549 breast
CAKI-1 renal = tested on: CAKI-1 renal
COLO 205 colon = tested on: COLO 205 colon
DU-145 prostate = tested on: DU-145 prostate
EKVX NSCLC = tested on: EKVX NSCLC
HCC-2998 colon = tested on: HCC-2998 colon
HCT-116 colon = tested on: HCT-116 colon
HCT-15 colon = tested on: HCT-15 colon
HL-60(TB) leukemia = tested on: HL-60(TB) leukemia
HOP-62 NSCLC = tested on: HOP-62 NSCLC
HOP-92 NSCLC = tested on: HOP-92 NSCLC
HS 578T breast = tested on: HS 578T breast
HT29 colon = tested on: HT29 colon
IGROV1 ovarian = tested on: IGROV1 ovarian
KM12 colon = tested on: KM12 colon
LOX IMVI melanoma = tested on: LOX IMVI melanoma
M14 melanoma = tested on: M14 melanoma
MALME-3M melanoma = tested on: MALME-3M melanoma
MCF7 breast = tested on: MCF7 breast
MDA-MB-231 breast = tested on: MDA-MB-231 breast
MDA-MB-435 melanoma = tested on: MDA-MB-435 melanoma
MDA-MB-468 breast = tested on: MDA-MB-468 breast
MOLT-4 leukemia = tested on: MOLT-4 leukemia
NCI-H226 lung = tested on: NCI-H226 lung
NCI-H23 lung = tested on: NCI-H23 lung
NCI-H322M lung = tested on: NCI-H322M lung
NCI-H460 NSCLC = tested on: NCI-H460 NSCLC
NCI-H522 lung = tested on: NCI-H522 lung
NCI/ADR-RES ovarian = tested on: NCI/ADR-RES ovarian
OVCAR-3 ovarian = tested on: OVCAR-3 ovarian
OVCAR-4 ovarian = tested on: OVCAR-4 ovarian
OVCAR-5 ovarian = tested on: OVCAR-5 ovarian
OVCAR-8 ovarian = tested on: OVCAR-8 ovarian
PC-3 prostate = tested on: PC-3 prostate
RPMI-8226 leukemia = tested on: RPMI-8226 leukemia
RXF 393 renal = tested on: RXF 393 renal
SF-268 CNS = tested on: SF-268 CNS
SF-295 CNS = tested on: SF-295 CNS
SF-539 CNS = tested on: SF-539 CNS
SK-MEL-28 melanoma = tested on: SK-MEL-28 melanoma
SK-MEL-5 melanoma = tested on: SK-MEL-5 melanoma
SK-OV-3 ovarian = tested on: SK-OV-3 ovarian
SN12C renal = tested on: SN12C renal
SNB-19 CNS = tested on: SNB-19 CNS
SNB-75 CNS = tested on: SNB-75 CNS
SR leukemia = tested on: SR leukemia
SW-620 colon = tested on: SW-620 colon
T-47D breast = tested on: T-47D breast
TK-10 renal = tested on: TK-10 renal
U251 glioblastoma = tested on: U251 glioblastoma
UACC-257 melanoma = tested on: UACC-257 melanoma
UACC-62 melanoma = tested on: UACC-62 melanoma
UO-31 renal = tested on: UO-31 renal

## C=C1C[C@@H]2[C@H](CC[C@]3(C)C(=O)CC[C@@H]23)[C@@]2(C)C=CC(=O)C=C12
786-0 renal
  GI50: 19.8 µM
  TGI: 45.8 µM
A498 renal
  GI50: 23.3 µM
  TGI: 47.8 µM
A549 NSCLC
  GI50: 30.1 µM
  TGI: > 100 µM
ACHN renal
  GI50: 22.3 µM
  TGI: 42.6 µM
BT-549 breast
  GI50: 14.9 µM
  TGI: 31.1 µM
CAKI-1 renal
  GI50: 27 µM
  TGI: 70.7 µM
COLO 205 colon
  GI50: 20.7 µM
  TGI: 37.4 µM
DU-145 prostate
  GI50: 35.2 µM
  TGI: > 100 µM
EKVX NSCLC
  GI50: 28.4 µM
  TGI: 75.7 µM
HCC-2998 colon
  GI50: 15.8 µM
  TGI: 30 µM
HCT-116 colon
  GI50: 27.5 µM
  TGI: > 100 µM
HCT-15 colon
  GI50: 19 µM
  TGI: > 100 µM
HL-60(TB) leukemia
  GI50: 12.8 µM
  TGI: 25.6 µM
HOP-62 NSCLC
  GI50: 23.1 µM
  TGI: 56.2 µM
HOP-92 NSCLC
  GI50: > 100 µM
  TGI: > 100 µM
HS 578T breast
  GI50: 12.3 µM
  TGI: 27.2 µM
HT29 colon
  GI50: 23 µM
  TGI: 99.1 µM
IGROV1 ovarian
  GI50: 32.6 µM
  TGI: > 100 µM
KM12 colon
  GI50: 28 µM
  TGI: 94.9 µM
LOX IMVI melanoma
  GI50: 12.5 µM
  TGI: 27.1 µM
M14 melanoma
  GI50: 29.3 µM
  TGI: > 100 µM
MALME-3M melanoma
  GI50: 12.2 µM
  TGI: 25.9 µM
MCF7 breast
  GI50: 18.6 µM
  TGI: 82.4 µM
MDA-MB-231 breast
  GI50: 28.8 µM
  TGI: 85.1 µM
MDA-MB-435 melanoma
  GI50: 82.9 µM
  TGI: > 100 µM
MDA-MB-468 breast
  GI50: 6.15 µM
  TGI: 25.8 µM
MOLT-4 leukemia
  GI50: 13.7 µM
  TGI: 27 µM
NCI-H226 lung
  GI50: 20.5 µM
  TGI: 39.2 µM
NCI-H23 lung
  GI50: 17.9 µM
  TGI: 36.2 µM
NCI-H322M lung
  GI50: 25.1 µM
  TGI: 74.6 µM
NCI-H460 NSCLC
  GI50: 21.1 µM
  TGI: 40.6 µM
NCI-H522 lung
  GI50: 12.2 µM
  TGI: 24.8 µM
NCI/ADR-RES ovarian
  GI50: 17.9 µM
  TGI: 35.3 µM
OVCAR-3 ovarian
  GI50: 14.8 µM
  TGI: 35.9 µM
OVCAR-4 ovarian
  GI50: 20.9 µM
  TGI: 40.2 µM
OVCAR-5 ovarian
  GI50: > 100 µM
  TGI: > 100 µM
OVCAR-8 ovarian
  GI50: 20.3 µM
  TGI: 47.2 µM
PC-3 prostate
  GI50: 30.3 µM
  TGI: > 100 µM
RPMI-8226 leukemia
  GI50: 17.8 µM
  TGI: 32.2 µM
RXF 393 renal
  GI50: 5.67 µM
  TGI: 17.4 µM
SF-268 CNS
  GI50: 27.4 µM
  TGI: 74.9 µM
SF-295 CNS
  GI50: 57.1 µM
  TGI: > 100 µM
SF-539 CNS
  GI50: 19.6 µM
  TGI: 38.9 µM
SK-MEL-28 melanoma
  GI50: > 100 µM
  TGI: > 100 µM
SK-MEL-5 melanoma
  GI50: 12.9 µM
  TGI: 29.1 µM
SK-OV-3 ovarian
  GI50: 82.2 µM
  TGI: > 100 µM
SN12C renal
  GI50: 32.4 µM
  TGI: 98.2 µM
SNB-19 CNS
  GI50: 46.5 µM
  TGI: > 100 µM
SNB-75 CNS
  GI50: 25.9 µM
  TGI: 74 µM
SR leukemia
  GI50: 18 µM
  TGI: 32.1 µM
SW-620 colon
  GI50: 33.9 µM
  TGI: > 100 µM
T-47D breast
  GI50: 27.6 µM
  TGI: 98.6 µM
TK-10 renal
  GI50: > 100 µM
  TGI: > 100 µM
U251 glioblastoma
  GI50: 21.4 µM
  TGI: 44.4 µM
UACC-257 melanoma
  GI50: 17.3 µM
  TGI: 53.1 µM
UACC-62 melanoma
  GI50: 21.9 µM
  TGI: > 100 µM
UO-31 renal
  GI50: 21.1 µM
  TGI: 39.5 µM
